# Tests used:
# [1] = test system: P. falciparum HB3; experiment: In vitro P. falciparum blood-stage assay, strain HB3; format: cell-based; details: Plasmodium falciparum
# Experimental: (§1) Strains of Plasmodium falciparum (Dd2, 3D7, D6, K1, NF54, V1/3, HB3, 7G8, FCB, TM90C2B) were obtained from Malaria Research and Reference Reagent Resource Center (MR4). P. falciparum isolates were maintained with O-positive human blood in an atmosphere of 93% N2, 4% CO2, 3% O2 at 37° C. in complete culturing medium (10.4 g/L RPMI 1640, 5.94 g/L HEPES, 5 g/L albumax II, 50 mg/L hypoxanthine, 2.1 g/L sodium bicarbonate, 10% human serum and 43 mg/L gentamicin). Parasites were cultured in medium until the parasitemia reached 3-8%. Parasitemia was determined by checking at least 500 red blood cells from a Giemsa-stained blood smear. For the compound screening, a parasite suspension at 2.0% parasitemia and 2.0% hematocrit was created with medium. 25 μl of medium was dispensed into 384-well, black, clear-bottom plates. 100 nl of compounds in DMSO was transferred into the assay plates along with control compound (mefloquine). Next, 25 μl of the parasite suspension in medium was dispensed into the assay plates such that the final parasitemia was 1% and the final hematocrit was 1%. The assay plates were incubated for 72 hours at 37° C. […] The assay plates were read with 505 dichroic mirrors with 485-nm excitation and 530-nm emission settings.
# [2] = test system: Dd2 strain of P. falciparum; experiment: Activity against the Dd2 strain of P. falciparum (SYBR Green I, 72-h incubation); format: cell-based; details: Plasmodium falciparum, DD2, 72 h, read-out: EC^50 Dd2
# In short: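 SYBR Green I signal (ex 485, em 530 nm) measured growth, read after 24 h dark staining in saponin/Triton lysis buffer. Before that, compound-exposed Dd2 cultures (1% parasitemia, 1.0% hematocrit, 0.125% DMSO) grew 72 h at 37° C in low-oxygen gas. Background control: 20 μM mefloquine.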
# [3] = test system: P. falciparum 7G8; experiment: In vitro P. falciparum blood-stage assay, strain 7G8; format: cell-based; details: Plasmodium falciparum
# Experimental: as §1
# [4] = test system: P. falciparum K1; experiment: In vitro P. falciparum blood-stage assay, strain K1; format: cell-based; details: Plasmodium falciparum
# Experimental: as §1
# [5] = test system: P. falciparum D6; experiment: In vitro P. falciparum blood-stage assay, strain D6; format: cell-based; details: Plasmodium falciparum
# Experimental: as §1
# [6] = test system: P. berghei (ANKA GFP-luc); experiment: In vitro P. berghei liver-stage assay in HepG2 cells; format: cell-based; details: Plasmodium berghei, 48 hour incubation, read-out: IC50 exo-erythrocytic stage P. berghei
# Experimental: In vitro P. berghei liver-stage assay HepG2 cells were maintained in DMEM, 10% (vol/vol) FBS (Sigma), and 1% (vol/vol) antibiotic-antimycotic in a standard tissue culture incubator (37° C., 5% CO2). P. berghei (ANKA GFP-luc) infected Anopheles stephensi mosquitoes were obtained from the New York University Langone Medical Center Insectary (New York). For assays, ˜17,500 HepG2 cells per well were added to a 384-well microtiter plate in duplicate. After 18-24 h at 37° C. the media was exchanged and compounds were added. After 1 hour, parasites obtained from freshly dissected mosquitoes were added to the plates (4,000 parasites per well), the plates were spun for 10 min at 1,000 rpm, and then the plates were incubated at 37° C. The final assay volume was 30 μL. After a 48 hour incubation at 37° C., Bright-Glo (Promega) was added to the parasite plate to measure relative luminescence. The relative signal intensity of each plate was evaluated with an EnVision (PerkinElmer) system.
# [7] = test system: P. berghei (ANKA GFP-luc) blood stage parasites; experiment: In vivo P. berghei blood-stage assay; design: species or system CD-1 mice; details: 50 mg/kg 4x, p.o., T/E
# Experimental: CD-1 mice (n=4 per experimental group; female; 6-7-week-old; 20-24 g) were inoculated with 1×10^6 P. berghei (ANKA GFP-luc) blood stage parasites intravenously 24 hours before treatment and compounds were administered orally (at 0 hour). Parasitemia was monitored by the In vivo Imaging System (IVIS 100, Xenogen; Caliper Life Sciences) to acquire the bioluminescence signal. In addition, blood smear samples were obtained from each mouse on day 4 after inoculation, stained with Giemsa, and viewed under a microscope for visual detection of blood parasitemia. Animals with parasitemia exceeding 20% were euthanized.
# [8] = test system: P. falciparum NF54; experiment: In vitro P. falciparum blood-stage assay, strain NF54; format: cell-based; details: Plasmodium falciparum
# Experimental: as §1
# [9] = test system: P. falciparum TM90C2B; experiment: In vitro P. falciparum blood-stage assay, strain TM90C2B; format: cell-based; details: Plasmodium falciparum
# Experimental: as §1
# [10] = test system: P. falciparum V1/3; experiment: In vitro P. falciparum blood-stage assay, strain V1/3; format: cell-based; details: Plasmodium falciparum
# Experimental: as §1
smiles,measurement,setting,value
"COc1ccc2c3c([nH]c2c1)[C@H](CO)N(C(C)=O)CC31CCN(C(=O)Nc2ccccc2F)CC1 [Compound 15, (R)-2′-acetyl-N-(2-fluorophenyl)-1′-(hydroxymethyl)-7′-methoxy-1′,2′,3′,9′-tetrahydrospiro [piperidine-4,4′-pyrido[3,4-b]indole]-1-carboxamide]",IC50,[1],147 nM
same,EC50,[2],15 to 178 nM
same,IC50,[3],113 nM
same,IC50,[4],91 nM
same,IC50,[5],70 nM
same,IC50,[6],459 nM
same,% Activity,[7],94.20%
same,% of control,[7],5.80%
same,Avg. Mouse survival,[7],6.3 days
same,"Mouse survival in days, M1",[7]; mouse M1,6 days
same,"Parasitized RBC over 100, M1",[7]; mouse M1,3.70
same,"Mouse survival in days, M2",[7]; mouse M2,6 days
same,"Parasitized RBC over 100, M2",[7]; mouse M2,3.20
same,"Mouse survival in days, M3",[7]; mouse M3,7 days
same,"Parasitized RBC over 100, M3",[7]; mouse M3,2.80
same,IC50,[8],88 nM
same,IC50,[9],104 nM
same,IC50,[10],98 nM

# Source: patent US9428507B2, “Compounds for the treatment of malaria” (The Broad Institute, Inc., priority 2013, dated 2016)
